Test results from PubChem BioAssay (NCI).
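Where inhibition never reached the appropriate level, the endpoint shown equals the highest concentration tested. Otherwise, values were interpolated linearly from a five-concentration, 48-hour dose response in 96-well plates. Abbreviation: GI50, concentration required for 50% inhibition of growth. TGI is the concentration that stops growth completely.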

How the values were obtained:
Assay in all cases: inhibition of tumour cell growth, NCI panel, 48 h; in the data active = GI50 below about 0.43 µM; inactive = the rest
786-0 renal = test system: 786-0 renal
A498 renal = test system: A498 renal
A549 NSCLC = test system: A549 NSCLC
ACHN renal = test system: ACHN renal
BT-549 breast = test system: BT-549 breast
CAKI-1 renal = test system: CAKI-1 renal
CCRF-CEM leukemia = test system: CCRF-CEM leukemia
COLO 205 colon = test system: COLO 205 colon
DU-145 prostate = test system: DU-145 prostate
EKVX NSCLC = test system: EKVX NSCLC
HCC-2998 colon = test system: HCC-2998 colon
HCT-116 colon = test system: HCT-116 colon
HCT-15 colon = test system: HCT-15 colon
HL-60(TB) leukemia = test system: HL-60(TB) leukemia
HOP-62 NSCLC = test system: HOP-62 NSCLC
HOP-92 NSCLC = test system: HOP-92 NSCLC
HT29 colon = test system: HT29 colon
IGROV1 ovarian = test system: IGROV1 ovarian
K-562 leukemia = test system: K-562 leukemia
KM12 colon = test system: KM12 colon
LOX IMVI melanoma = test system: LOX IMVI melanoma
M14 melanoma = test system: M14 melanoma
MALME-3M melanoma = test system: MALME-3M melanoma
MDA-MB-231 breast = test system: MDA-MB-231 breast
MDA-MB-435 = test system: MDA-MB-435
MOLT-4 leukemia = test system: MOLT-4 leukemia
NCI-H226 lung = test system: NCI-H226 lung
NCI-H23 lung = test system: NCI-H23 lung
NCI-H460 lung = test system: NCI-H460 lung
NCI-H522 lung = test system: NCI-H522 lung
NCI/ADR-RES ovarian = test system: NCI/ADR-RES ovarian
OVCAR-3 ovarian = test system: OVCAR-3 ovarian
OVCAR-4 ovarian = test system: OVCAR-4 ovarian
OVCAR-5 ovarian = test system: OVCAR-5 ovarian
OVCAR-8 ovarian = test system: OVCAR-8 ovarian
PC-3 prostate = test system: PC-3 prostate
RPMI-8226 leukemia = test system: RPMI-8226 leukemia
RXF 393 renal = test system: RXF 393 renal
SF-268 CNS = test system: SF-268 CNS
SF-295 CNS = test system: SF-295 CNS
SF-539 CNS = test system: SF-539 CNS
SK-MEL-2 melanoma = test system: SK-MEL-2 melanoma
SK-MEL-28 melanoma = test system: SK-MEL-28 melanoma
SK-MEL-5 melanoma = test system: SK-MEL-5 melanoma
SK-OV-3 ovarian = test system: SK-OV-3 ovarian
SN12C renal = test system: SN12C renal
SNB-19 CNS = test system: SNB-19 CNS
SNB-75 CNS = test system: SNB-75 CNS
SR leukemia = test system: SR leukemia
SW-620 colon = test system: SW-620 colon
T-47D breast = test system: T-47D breast
TK-10 renal = test system: TK-10 renal
U251 CNS = test system: U251 CNS
UACC-257 melanoma = test system: UACC-257 melanoma
UACC-62 melanoma = test system: UACC-62 melanoma
UO-31 renal = test system: UO-31 renal
HS 578T breast = test system: HS 578T breast
MCF7 breast = test system: MCF7 breast

CN(C)CCOc1cccc(NC2=C(Cl)C(=O)C(Nc3cccc(OCCN(C)C)c3)=C(Cl)C2=O)c1
2930 nM: TGI (U251 CNS)
2490 nM: TGI (SK-MEL-28 melanoma)
465 nM: TGI (ACHN renal)
663 nM: TGI (IGROV1 ovarian)
2130 nM: TGI (EKVX NSCLC)
3120 nM: TGI (BT-549 breast)
2980 nM: TGI (SF-539 CNS)
1900 nM: TGI (MDA-MB-435)
460 nM: TGI (NCI-H522 lung)
2530 nM: TGI (M14 melanoma)
844 nM: TGI (MOLT-4 leukemia)
513 nM: TGI (TK-10 renal)
2610 nM: TGI (HL-60(TB) leukemia) | TGI (SK-MEL-2 melanoma)
2910 nM: TGI (OVCAR-8 ovarian)
407 nM: TGI (LOX IMVI melanoma)
5920 nM: TGI (SF-295 CNS)
3980 nM: TGI (A549 NSCLC)
3260 nM: TGI (A498 renal)
3480 nM: TGI (SF-268 CNS)
385 nM: TGI (HCT-116 colon)
3400 nM: TGI (OVCAR-5 ovarian)
1270 nM: TGI (DU-145 prostate)
3930 nM: TGI (NCI-H226 lung)
> 26400 nM: TGI (NCI/ADR-RES ovarian)
438 nM: TGI (SW-620 colon)
3270 nM: TGI (NCI-H460 lung)
329 nM: TGI (OVCAR-4 ovarian)
active: GI50 (ACHN renal) 219 nM | GI50 (CCRF-CEM leukemia) 256 nM | GI50 (COLO 205 colon) 258 nM | GI50 (DU-145 prostate) 366 nM | GI50 (HCT-116 colon) 180 nM | GI50 (HCT-15 colon) 350 nM | GI50 (HOP-92 NSCLC) 184 nM | GI50 (HT29 colon) 258 nM | GI50 (IGROV1 ovarian) 235 nM | GI50 (K-562 leukemia) 162 nM | GI50 (LOX IMVI melanoma) 191 nM | GI50 (MALME-3M melanoma) 275 nM | GI50 (MOLT-4 leukemia) 255 nM | GI50 (NCI-H23 lung) 323 nM | GI50 (NCI-H522 lung) 194 nM | GI50 (OVCAR-3 ovarian) 180 nM | GI50 (OVCAR-4 ovarian) 170 nM | GI50 (RPMI-8226 leukemia) 306 nM | GI50 (RXF 393 renal) 358 nM | GI50 (SN12C renal) 427 nM | GI50 (SR leukemia) 218 nM | GI50 (SW-620 colon) 207 nM | GI50 (T-47D breast) 189 nM | GI50 (TK-10 renal) 234 nM
1350 nM: TGI (NCI-H23 lung)
932 nM: TGI (CCRF-CEM leukemia)
1030 nM: TGI (RPMI-8226 leukemia)
979 nM: TGI (UO-31 renal)
827 nM: TGI (MALME-3M melanoma)
2040 nM: TGI (SK-MEL-5 melanoma)
2030 nM: TGI (UACC-257 melanoma)
2920 nM: TGI (KM12 colon)
1120 nM: TGI (786-0 renal)
453 nM: TGI (T-47D breast)
684 nM: TGI (COLO 205 colon)
783 nM: TGI (SR leukemia)
1400 nM: TGI (HCT-15 colon)
2570 nM: TGI (UACC-62 melanoma)
1170 nM: TGI (MDA-MB-231 breast)
inactive: GI50 (786-0 renal) 490 nM | GI50 (A498 renal) 1640 nM | GI50 (A549 NSCLC) 2190 nM | GI50 (BT-549 breast) 1720 nM | GI50 (CAKI-1 renal) 1440 nM | GI50 (EKVX NSCLC) 794 nM | GI50 (HCC-2998 colon) 1440 nM | GI50 (HL-60(TB) leukemia) 751 nM | GI50 (HOP-62 NSCLC) 2100 nM | GI50 (KM12 colon) 1330 nM | GI50 (M14 melanoma) 1140 nM | GI50 (MDA-MB-231 breast) 540 nM | GI50 (MDA-MB-435) 666 nM | GI50 (NCI-H226 lung) 1810 nM | GI50 (NCI-H460 lung) 1570 nM | GI50 (NCI/ADR-RES ovarian) 2440 nM | GI50 (OVCAR-5 ovarian) 1840 nM | GI50 (OVCAR-8 ovarian) 1130 nM | GI50 (PC-3 prostate) 1520 nM | GI50 (SF-268 CNS) 1700 nM | GI50 (SF-295 CNS) 2360 nM | GI50 (SF-539 CNS) 1620 nM | GI50 (SK-MEL-2 melanoma) 1110 nM | GI50 (SK-MEL-28 melanoma) 1030 nM | GI50 (SK-MEL-5 melanoma) 792 nM | GI50 (SK-OV-3 ovarian) 11300 nM | GI50 (SNB-19 CNS) 1720 nM | GI50 (SNB-75 CNS) 1930 nM | GI50 (U251 CNS) 1470 nM | GI50 (UACC-257 melanoma) 765 nM | GI50 (UACC-62 melanoma) 1200 nM | GI50 (UO-31 renal) 498 nM
3000 nM: TGI (HCC-2998 colon)
4220 nM: TGI (HOP-62 NSCLC)
608 nM: TGI (K-562 leukemia)
334 nM: TGI (OVCAR-3 ovarian)
666 nM: TGI (HT29 colon)
3250 nM: TGI (PC-3 prostate)
886 nM: TGI (SN12C renal)
408 nM: TGI (HOP-92 NSCLC)
3310 nM: TGI (SNB-19 CNS)
4870 nM: TGI (SNB-75 CNS)
1210 nM: TGI (RXF 393 renal)
23400 nM: TGI (SK-OV-3 ovarian)
2810 nM: TGI (CAKI-1 renal)

Clc1cccc(Cc2cn3cc(-c4ccccc4)nc3s2)c1
21300 nM: TGI (MDA-MB-231 breast)
81200 nM: TGI (U251 CNS)
1970 nM: TGI (UACC-62 melanoma)
98900 nM: TGI (NCI-H23 lung)
34300 nM: TGI (HOP-92 NSCLC)
> 100000 nM: TGI (786-0 renal) | TGI (A549 NSCLC) | TGI (ACHN renal) | TGI (BT-549 breast) | TGI (CAKI-1 renal) | TGI (CCRF-CEM leukemia) | TGI (DU-145 prostate) | TGI (HCC-2998 colon) | TGI (HCT-116 colon) | TGI (HL-60(TB) leukemia) | TGI (HS 578T breast) | TGI (HT29 colon) | TGI (IGROV1 ovarian) | TGI (K-562 leukemia) | TGI (KM12 colon) | TGI (LOX IMVI melanoma) | TGI (M14 melanoma) | TGI (MALME-3M melanoma) | TGI (MCF7 breast) | TGI (MDA-MB-435) | TGI (MOLT-4 leukemia) | TGI (NCI-H226 lung) | TGI (NCI-H460 lung) | TGI (NCI/ADR-RES ovarian) | TGI (OVCAR-3 ovarian) | TGI (OVCAR-4 ovarian) | TGI (OVCAR-5 ovarian) | TGI (OVCAR-8 ovarian) | TGI (PC-3 prostate) | TGI (RPMI-8226 leukemia) | TGI (SF-268 CNS) | TGI (SF-539 CNS) | TGI (SK-MEL-28 melanoma) | TGI (SK-MEL-5 melanoma) | TGI (SK-OV-3 ovarian) | TGI (SN12C renal) | TGI (SNB-19 CNS) | TGI (SR leukemia) | TGI (SW-620 colon) | TGI (T-47D breast) | TGI (TK-10 renal) | TGI (UACC-257 melanoma) | TGI (UO-31 renal)
76700 nM: TGI (SNB-75 CNS)
34400 nM: TGI (SK-MEL-2 melanoma)
40500 nM: TGI (HOP-62 NSCLC)
inactive: GI50 (786-0 renal) 26700 nM | GI50 (A549 NSCLC) 3930 nM | GI50 (ACHN renal) 2770 nM | GI50 (BT-549 breast) 28800 nM | GI50 (CAKI-1 renal) 2680 nM | GI50 (CCRF-CEM leukemia) 43000 nM | GI50 (DU-145 prostate) 17700 nM | GI50 (HCC-2998 colon) 2390 nM | GI50 (HCT-116 colon) 9360 nM | GI50 (HL-60(TB) leukemia) 9130 nM | GI50 (HOP-62 NSCLC) 9100 nM | GI50 (HOP-92 NSCLC) 11500 nM | GI50 (HS 578T breast) 13400 nM | GI50 (HT29 colon) 11800 nM | GI50 (IGROV1 ovarian) 5360 nM | GI50 (K-562 leukemia) 591 nM | GI50 (KM12 colon) 1990 nM | GI50 (LOX IMVI melanoma) 629 nM | GI50 (M14 melanoma) 840 nM | GI50 (MALME-3M melanoma) 21400 nM | GI50 (MCF7 breast) 2790 nM | GI50 (MDA-MB-231 breast) 1910 nM | GI50 (MDA-MB-435) 3480 nM | GI50 (MOLT-4 leukemia) > 100000 nM | GI50 (NCI-H226 lung) 49200 nM | GI50 (NCI-H23 lung) 9070 nM | GI50 (NCI-H460 lung) 3310 nM | GI50 (NCI/ADR-RES ovarian) 3490 nM | GI50 (OVCAR-3 ovarian) 9070 nM | GI50 (OVCAR-4 ovarian) 4420 nM | GI50 (OVCAR-5 ovarian) 66800 nM | GI50 (OVCAR-8 ovarian) 20500 nM | GI50 (PC-3 prostate) 14400 nM | GI50 (RPMI-8226 leukemia) 7400 nM | GI50 (RXF 393 renal) 15100 nM | GI50 (SF-268 CNS) 12800 nM | GI50 (SF-539 CNS) 8310 nM | GI50 (SK-MEL-2 melanoma) 3280 nM | GI50 (SK-MEL-28 melanoma) 61500 nM | GI50 (SK-MEL-5 melanoma) 2670 nM | GI50 (SK-OV-3 ovarian) 39600 nM | GI50 (SN12C renal) 7410 nM | GI50 (SNB-19 CNS) 8920 nM | GI50 (SNB-75 CNS) 21200 nM | GI50 (SR leukemia) 36500 nM | GI50 (SW-620 colon) 1260 nM | GI50 (T-47D breast) 2330 nM | GI50 (TK-10 renal) 22000 nM | GI50 (U251 CNS) 9180 nM | GI50 (UACC-257 melanoma) 10300 nM | GI50 (UO-31 renal) 7470 nM
40400 nM: TGI (RXF 393 renal)
active: GI50 (UACC-62 melanoma) 323 nM
